Measurements published in the NIST ThermoML archive (doi:10.1021/je030102f).

Experiment: xn = mol fraction of the nth substance listed
Details: 101.33 kPa, Liquid, vibrating tube

CC(C)=O [acetone] + O
mass density [kg/m3]
Details | x1 = 0.0988 | x1 = 0.2193 | x1 = 0.2973 | x1 = 0.3998 | x1 = 0.4986 | x1 = 0.5903 | x1 = 0.6984 | x1 = 0.7934 | x1 = 0.8916 | x1 = 1
283.15 K | 966.507 | 932.823 | 913.382 | 889.08 | 868.988 | 853.092 | 836.647 | 824.028 | 812.997 | 801.669
288.15 K | 963.567 | 928.61 | 908.777 | 884.145 | 863.861 | 847.829 | 831.252 | 818.534 | 807.424 | 796.037
293.14 K | – | 924.322 | 904.105 | 879.148 | – | – | – | – | – | –
293.15 K | 960.497 | – | – | – | 858.674 | 842.508 | 825.797 | 812.982 | 801.797 | 790.355
298.14 K | 957.313 | 919.968 | 899.375 | 874.098 | – | 837.135 | 820.292 | 807.383 | 796.13 | –
298.15 K | – | – | – | – | 853.436 | – | – | – | – | 784.638
303.14 K | – | 915.544 | 894.587 | 868.996 | 848.142 | 831.707 | 814.735 | 801.735 | 790.413 | 778.876
303.15 K | 954.01 | – | – | – | – | – | – | – | – | –
308.14 K | – | – | – | – | – | 826.22 | – | – | – | –
308.15 K | 950.61 | 911.052 | 889.735 | 863.836 | 842.791 | – | 809.12 | 796.028 | 784.645 | 773.065
313.14 K | 947.117 | 906.488 | 884.822 | 858.617 | – | 820.677 | 803.446 | 790.262 | 778.818 | 767.205
313.15 K | – | – | – | – | 837.381 | – | – | – | – | –
318.14 K | – | 901.855 | 879.849 | 853.341 | 831.924 | – | – | 784.437 | 772.936 | 761.288
318.15 K | 943.497 | – | – | – | – | 815.068 | 797.707 | – | – | –
323.14 K | – | – | 874.812 | 848.021 | 826.399 | – | 791.9 | 778.546 | 766.99 | 755.314
323.15 K | 939.767 | 897.151 | – | – | – | 809.395 | – | – | – | –

CCC(=O)O [propanoic acid] + CC(C)=O
mass density [kg/m3]
Details | x2 = 0 | x2 = 0.1014 | x2 = 0.1991 | x2 = 0.3046 | x2 = 0.4011 | x2 = 0.5001 | x2 = 0.603 | x2 = 0.6887 | x2 = 0.7703 | x2 = 0.8987
283.15 K | 1004.11 | 987.375 | 970.353 | 951.246 | 933.088 | 913.785 | 892.899 | 874.585 | 856.85 | 826.598
288.15 K | 998.688 | 982.013 | 965.023 | 945.944 | 927.765 | 908.446 | 887.52 | 869.18 | 851.407 | 821.062
293.15 K | 993.261 | 976.644 | 959.68 | 940.613 | 922.423 | 903.081 | 882.117 | 863.74 | 845.923 | 815.482
298.14 K | – | – | 954.344 | – | 917.072 | 897.705 | – | 858.28 | 840.415 | 809.87
298.15 K | 987.847 | 971.282 | – | 935.277 | – | – | 876.699 | – | – | –
303.14 K | 982.44 | 965.92 | 948.999 | 929.933 | 911.708 | 892.312 | 871.26 | 852.794 | 834.877 | 804.221
308.15 K | 977.037 | 960.555 | 943.653 | 924.579 | 906.33 | 886.9 | 865.798 | 847.276 | 829.305 | 798.532
313.14 K | 971.635 | 955.192 | – | – | – | – | 860.309 | – | 823.695 | –
313.15 K | – | – | 938.294 | 919.21 | 900.935 | 881.462 | – | 841.731 | – | 792.797
318.14 K | 966.24 | 949.825 | 932.928 | 913.828 | 895.523 | 876.007 | 854.791 | 836.154 | 818.051 | 787.018
323.14 K | 960.843 | – | 927.551 | 908.43 | 890.087 | – | – | – | 812.366 | 781.194
323.15 K | – | 944.448 | – | – | – | – | 849.244 | 830.541 | – | –

CCC(=O)O [propanoic acid] + O
mass density [kg/m3]
Details | x1 = 0.1298 | x1 = 0.2029 | x1 = 0.3012 | x1 = 0.4007 | x1 = 0.5008 | x1 = 0.5989 | x1 = 0.6974 | x1 = 0.7965 | x1 = 0.8915 | x1 = 1
283.15 K | 1026.89 | 1033.97 | 1034.47 | 1032.63 | 1029.26 | 1025.17 | 1020.51 | 1015.43 | 1010.32 | 1004.11
288.14 K | – | – | – | 1027.99 | – | – | – | – | 1005.04 | –
288.15 K | 1023.97 | 1030.05 | 1029.92 | – | 1024.44 | 1020.22 | 1015.46 | 1010.26 | – | 998.688
293.14 K | – | 1026.08 | 1025.58 | – | – | – | 1010.39 | – | – | –
293.15 K | 1020.98 | – | – | 1023.31 | 1019.59 | 1015.26 | – | 1005.1 | 999.76 | 993.261
298.14 K | – | 1022.05 | 1021.14 | – | 1014.72 | – | 1005.31 | 999.927 | – | –
298.15 K | 1017.85 | – | – | 1018.61 | – | 1010.28 | – | – | 994.478 | 987.847
303.14 K | 1014.61 | – | 1016.76 | 1013.88 | 1009.8 | 1005.29 | – | 994.744 | – | 982.44
303.15 K | – | 1017.97 | – | – | – | – | 1000.22 | – | 989.192 | –
308.14 K | – | – | – | – | – | – | – | 989.551 | – | –
308.15 K | 1011.28 | 1013.84 | 1012.25 | 1009.12 | 1004.17 | 1000.27 | 995.12 | – | 983.905 | 977.037
313.14 K | 1007.85 | 1009.64 | 1007.69 | – | 999.956 | 995.242 | 990.001 | – | 978.613 | 971.635
313.15 K | – | – | – | 1004.33 | – | – | – | 984.345 | – | –
318.14 K | 1004.32 | 1005.39 | 1003.09 | 999.507 | 994.902 | 990.186 | 984.864 | 979.126 | 973.307 | 966.24
323.14 K | 1000.71 | 1001.09 | 998.434 | 994.651 | – | 985.106 | – | 973.895 | 967.999 | –
323.15 K | – | – | – | – | 990.008 | – | 979.705 | – | – | 960.843
